Tested on: FLAP (5-lipoxygenase activating protein)
Assay: In vitro binding test: displacement of [3H]-7-chloro-3-(5-((3-fluoropyridin-2-yl)methoxy)-2-methylphenyl)-3,4-dihydroquinazolin-2(1H)-one from Sf9 microsome fractions
Set-up: species or system human and mouse
Conditions: Sf9 microsome fractions expressing FLAP; 100% = radioligand binding with 10 μM sodium 3-(3-(tert-butylsulfanyl)-1-(4-chlorobenzyl)-5-isopropyl-1H-indol-2-yl)-2,2-dimethylpropanoate, 0% = DMSO; test compound concentration not given
Procedure, shortened: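 Sf9 microsomes expressing human or mouse FLAP (2 μg/mL) preincubated with compound 10 min at room temperature, then 120 nM tritiated quinazolinone ligand added for 60 min; buffer 100 mM Tris-HCl pH 7.5 with NaCl, EDTA, DTT, glycerol, Tween20. Bound ligand filtered and counted by scintillation; 10 μM indole propanoate defines 100% inhibition, DMSO 0%.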

| SMILES | inhibitory rate (%) |
| --- | --- |
| Cc1ccc(OCc2ncccc2F)cc1N1Cc2nn(C)cc2NC1=O [Example 250, 6-(5-((3-fluoropyridin-2-yl)methoxy)-2-methylphenyl)-2-methyl-2,4,6,7-tetrahydro-5H-pyrazolo[4,3-d]pyrimidin-5-one] | 70% |
| O=C(O)CCCCc1ccc(OCc2ncccc2F)cc1N1Cc2ccccc2NC1=O [Example 251, 5-(4-((3-fluoropyridin-2-yl)methoxy)-2-(2-oxo-1,4-dihydroquinazolin-3(2H)-yl)phenyl)pentanoic acid] | 68% |
| Cc1ccc(S(=O)(=O)Oc2ccc3c(c2)NC(=O)N(c2cc(OCc4ncccc4F)ccc2C)C3)cc1 [Example 252, 3-(5-((3-fluoropyridin-2-yl)methoxy)-2-methylphenyl)-2-oxo-1,2,3,4-tetrahydroquinazolin-7-yl 4-methylbenzenesulfonate] | 105% |
| Cc1ccc(OCc2ncccc2F)cc1N1Cc2cccc(Cl)c2NC1=O [Example 253, 8-chloro-3-(5-((3-fluoropyridin-2-yl)methoxy)-2-methylphenyl)-3,4-dihydroquinazolin-2(1H)-one] | 93% |
| CC(C)(O)c1ccc2c(c1)NC(=O)N(c1cc(OCc3c(F)cccc3F)ccc1Cc1ccccc1)C2 [Example 254, 3-(2-benzyl-5-((2,6-difluorobenzyl)oxy)phenyl)-7-(2-hydroxypropan-2-yl)-3,4-dihydroquinazolin-2(1H)-one] | 98% |
| O=C1Nc2cc(CO)ccc2CN1c1cc(OCc2c(F)cccc2F)ccc1Cc1ccccc1 [Example 255, 3-(2-benzyl-5-((2,6-difluorobenzyl)oxy)phenyl)-7-(hydroxymethyl)-3,4-dihydroquinazolin-2(1H)-one] | 81% |
| Cc1ccc(OCc2ncccc2F)cc1N1Cc2cccnc2NC1=O [Example 256, 3-(5-((3-fluoropyridin-2-yl)methoxy)-2-methylphenyl)-3,4-dihydropyrido[2,3-d]pyrimidin-2(1H)-one] | 85% |
| O=C1Nc2cc(CO)ccc2CN1c1cc(OCc2c(F)cccc2F)ccc1CCc1ccccc1 [Example 257, 3-(5-((2,6-difluorobenzyl)oxy)-2-(2-phenylethyl)phenyl)-7-(hydroxymethyl)-3,4-dihydroquinazolin-2(1H)-one] | 97% |
| COc1ccc(CN2C(=O)N(c3cc(OCc4ncccc4F)ccc3Br)Cc3ccccc32)cc1 [Example 258, 3-(2-bromo-5-((3-fluoropyridin-2-yl)methoxy)phenyl)-1-(4-methoxybenzyl)-3,4-dihydroquinazolin-2(1H)-one] | 116% |
| Cc1ccc(OCc2ncccc2F)cc1N1Cc2ccncc2NC1=O [Example 259, 3-(5-((3-fluoropyridin-2-yl)methoxy)-2-methylphenyl)-3,4-dihydropyrido[3,4-d]pyrimidin-2(1H)-one] | 92% |
| CC(C)(O)c1ccc2c(c1)NC(=O)N(c1cc(OCc3c(F)cccc3F)ccc1CCc1ccccc1)C2 [Example 260, 3-(5-((2,6-difluorobenzyl)oxy)-2-(2-phenylethyl)phenyl)-7-(2-hydroxypropan-2-yl)-3,4-dihydroquinazolin-2(1H)-one] | 106% |
| Cc1ccc(OCc2ncccc2F)cc1N1Cc2ccc(C(=O)NC3CC3)cc2NC1=O [Example 261, N-cyclopropyl-3-(5-((3-fluoropyridin-2-yl)methoxy)-2-methylphenyl)-2-oxo-1,2,3,4-tetrahydroquinazoline-7-carboxamide] | 116% |
| Cc1ccc(OCc2ncccc2F)cc1N1Cc2nn(CC(F)(F)F)cc2NC1=O [Example 263, 6-(5-((3-fluoropyridin-2-yl)methoxy)-2-methylphenyl)-2-(2,2,2-trifluoroethyl)-2,4,6,7-tetrahydro-5H-pyrazolo[4,3-d]pyrimidin-5-one] | 97% |
| Cn1cc2c(n1)CN(c1cc(OCc3ncccc3F)ccc1Br)C(=O)N2 [Example 264, 6-(2-bromo-5-((3-fluoropyridin-2-yl)methoxy)phenyl)-2-methyl-2,4,6,7-tetrahydro-5H-pyrazolo[4,3-d]pyrimidin-5-one] | 101% |
| Cc1ccc(OCc2ncccc2Cl)cc1N1Cc2nn(C)cc2NC1=O [Example 265, 6-(5-((3-chloropyridin-2-yl)methoxy)-2-methylphenyl)-2-methyl-2,4,6,7-tetrahydro-5H-pyrazolo[4,3-d]pyrimidin-5-one] | 82% |
| CCCN(C)C(=O)c1ccc2c(c1)NC(=O)N(c1cc(OCc3ncccc3F)ccc1C)C2 [Example 266, 3-(5-((3-fluoropyridin-2-yl)methoxy)-2-methylphenyl)-N-methyl-2-oxo-N-propyl-1,2,3,4-tetrahydroquinazoline-7-carboxamide] | 105% |
| O=C1Nc2ccccc2CN1c1cc(OCc2ncccn2)ccc1Br [Example 267, 3-(2-bromo-5-(pyrimidin-2-ylmethoxy)phenyl)-3,4-dihydroquinazolin-2(1H)-one] | 100% |

| SMILES | inhibitory rate (%) |
| --- | --- |
| Cc1ccc(OCc2ncccc2F)cc1N1Cc2cnccc2NC1=O [Example 268, 3-(5-((3-fluoropyridin-2-yl)methoxy)-2-methylphenyl)-3,4-dihydropyrido[4,3-d]pyrimidin-2(1H)-one] | 83% |
| Cc1ccc(OCc2ncccc2F)cc1N1Cc2c(Cl)cccc2N(C)C1=O [Example 269, 5-chloro-3-(5-((3-fluoropyridin-2-yl)methoxy)-2-methylphenyl)-1-methyl-3,4-dihydroquinazolin-2(1H)-one] | 111% |
| Cc1ccc(OCc2ncccc2F)cc1N1Cc2ccc(C(=O)NC(C)C)cc2NC1=O [Example 270, 3-(5-((3-fluoropyridin-2-yl)methoxy)-2-methylphenyl)-N-isopropyl-2-oxo-1,2,3,4-tetrahydroquinazoline-7-carboxamide] | 104% |
| Cc1ccc(OCc2ncccc2F)cc1N1Cc2ccc(C(=O)Nc3ccccn3)cc2NC1=O [Example 271, 3-(5-((3-fluoropyridin-2-yl)methoxy)-2-methylphenyl)-2-oxo-N-(pyridin-2-yl)-1,2,3,4-tetrahydroquinazoline-7-carboxamide] | 100% |
| Cc1ccc(OCc2ncccc2F)cc1N1Cc2ncccc2NC1=O [Example 272, 3-(5-((3-fluoropyridin-2-yl)methoxy)-2-methylphenyl)-3,4-dihydropyrido[3,2-d]pyrimidin-2(1H)-one] | 95% |
| Cc1ccc(OCc2ncccc2F)cc1N1Cc2ccc(C(=O)Nc3ccccc3)cc2NC1=O [Example 273, 3-(5-((3-fluoropyridin-2-yl)methoxy)-2-methylphenyl)-2-oxo-N-phenyl-1,2,3,4-tetrahydroquinazoline-7-carboxamide] | 100% |
| Cc1ccc(OCc2ncccn2)cc1N1Cc2c(Cl)cccc2NC1=O [Example 274, 5-chloro-3-(2-methyl-5-(pyrimidin-2-ylmethoxy)phenyl)-3,4-dihydroquinazolin-2(1H)-one] | 106% |
| Cc1ccc(OCc2ncccc2F)cc1N1Cc2ccc(C(F)(F)F)cc2NC1=O [Example 275, 3-(5-((3-fluoropyridin-2-yl)methoxy)-2-methylphenyl)-7-(trifluoromethyl)-3,4-dihydroquinazolin-2(1H)-one] | 101% |
| Cc1ccc(OCc2ncccc2F)cc1N1Cc2nn(CC3CC3)cc2NC1=O [Example 276, 2-(cyclopropylmethyl)-6-(5-((3-fluoropyridin-2-yl)methoxy)-2-methylphenyl)-2,4,6,7-tetrahydro-5H-pyrazolo[4,3-d]pyrimidin-5-one] | 101% |
| O=C1Nc2cccc(Cl)c2CN1c1cc(OCc2ncccc2F)ccc1Br [Example 277, 3-(2-bromo-5-((3-fluoropyridin-2-yl)methoxy)phenyl)-5-chloro-3,4-dihydroquinazolin-2(1H)-one] | 99% |
| N#Cc1ccc(OCc2ncccc2F)cc1N1Cc2c(Cl)cccc2NC1=O [Example 278, 2-(5-chloro-2-oxo-1,4-dihydroquinazolin-3(2H)-yl)-4-((3-fluoropyridin-2-yl)methoxy)benzonitrile] | 96% |
| Cc1ccc(OCc2ncccc2F)cc1N1Cc2c(ccnc2Cl)NC1=O [Example 279, 5-chloro-3-(5-((3-fluoropyridin-2-yl)methoxy)-2-methylphenyl)-3,4-dihydropyrido[4,3-d]pyrimidin-2(1H)-one] | 103% |
| O=C(CCc1ccc(OCc2ncccc2F)cc1N1Cc2ccccc2NC1=O)NC1CC1 [Example 280, N-cyclopropyl-3-(4-((3-fluoropyridin-2-yl)methoxy)-2-(2-oxo-1,4-dihydroquinazolin-3(2H)-yl)phenyl)propanamide] | 62% |
| Cc1ccc(OCc2ncccc2F)cc1N1Cc2c(F)cccc2NC1=O [Example 281, 5-fluoro-3-(5-((3-fluoropyridin-2-yl)methoxy)-2-methylphenyl)-3,4-dihydroquinazolin-2(1H)-one] | 107% |
| Cc1ccc(OCc2ncccc2F)cc1N1Cc2c(Br)cccc2NC1=O [Example 282, 5-bromo-3-(5-((3-fluoropyridin-2-yl)methoxy)-2-methylphenyl)-3,4-dihydroquinazolin-2(1H)-one] | 98% |
| COCCN1C(=O)N(c2cc(OCc3ncccc3F)ccc2C)Cc2c(Cl)cccc21 [Example 283, 5-chloro-3-(5-((3-fluoropyridin-2-yl)methoxy)-2-methylphenyl)-1-(2-methoxyethyl)-3,4-dihydroquinazolin-2(1H)-one] | 100% |

Source: patent US20150299188A1, “HETEROCYCLIC COMPOUND” (priority 2012, published 2015)
